This is an account of results in PubChem BioAssay AID1996.

Converted amounts (≈) assume the structure as drawn.

For the data set the following is noted: buffer; pH 7.4; 200.0 µM.
In the case of `O=C(c1cccc(F)c1)N1CCC2(CC1)NCCc1[nH]cnc12`, the kinetic solubility was greater than 47.2 µg/mL. For `c1ccc2c(c1)[nH]c1cnccc12` the value was greater than 25.2 µg/mL. The same measure for `Cc1ccc(C(=O)COC(=O)CN2C(=O)C3C4C=CC(C4)C3C2=O)cc1C` (centres undefined): greater than 55.1 µg/mL; for `O=C(O)C(Cc1ccccc1)N1C(=O)c2c(Cl)c(Cl)c(Cl)c(Cl)c2C1=O` (centres undefined): greater than 65 µg/mL. Turning to `CC1CCN(C2CCN(C(=O)c3ccccc3F)CC2)CC1`, the solubility (kinetic) stood at 34.7 µg/mL (≈ 114 µM). Molecule `CCCC(=O)Nc1ccccc1NC(=O)c1ccc(OC(C)=O)cc1` had a solubility (kinetic) of 47.5 µg/mL (≈ 140 µM). Regarding `CC(C)[C@H](NC(=O)c1ccccc1F)C(=O)NCCc1ccccc1`, the solubility (kinetic) is 26.4 µg/mL (≈ 77.1 µM). The same measure for `CCOc1ccc(S(=O)(=O)N2CCN(c3ccccn3)CC2)cc1`: 1.6 µg/mL (≈ 4.61 µM); for `CN1CCN(CC/C=C2/c3ccccc3Sc3ccc(S(=O)(=O)N(C)C)cc32)CC1`: greater than 66.5 µg/mL. `COc1ccccc1CNC(=O)COC(=O)Cc1cccs1` registered a kinetic solubility greater than 47.9 µg/mL. For `CCCn1c(SCC(=O)NC2CCCC2)nnc1C(C)C` the value was greater than 46.6 µg/mL; for `Cc1c(C(=O)NCc2ccco2)oc2c(Cl)cccc12`, 2.4 µg/mL (≈ 8.28 µM). The same measure for `O=C(Cc1c(Cl)cccc1Cl)OCc1ccccn1`: 40.1 µg/mL (≈ 135 µM); for `CCOc1ccccc1Nc1nnc(SCC(=O)NC2CC2)s1`: greater than 52.6 µg/mL; for `S=C(Nc1ccc(Br)cc1)Nc1ccc2c(c1)OCCO2`: 1.5 µg/mL (≈ 4.11 µM). `O=C(CC(=O)c1ccccc1)Nc1ccccc1C(F)(F)F`: the solubility (kinetic) was 43.7 µg/mL (≈ 142 µM). For `O=C(O)/C=C/C(=O)NCCc1ccc(Cl)cc1` the value was greater than 38.1 µg/mL; for `Cc1[nH]c2c([N+](=O)[O-])cccc2c1C`, 1.2 µg/mL (≈ 6.31 µM). For `Cc1cccc(C(=O)N[C@H](C(=O)NCc2cccs2)C(C)C)c1` the value was 7.5 µg/mL (≈ 22.7 µM); for `CCCCN(C)CCNC(=O)C(=O)c1c(C)[nH]c2ccccc12`, greater than 47.3 µg/mL; for `CCCNc1nc(OC)nc(N2CC3CC(C2)c2cccc(=O)n2C3)n1` (centres undefined), 50.6 µg/mL (≈ 142 µM). `Cc1cc(Cc2cc(C)c(N)cc2C)c(C)cc1N` returned a solubility (kinetic) greater than 38.2 µg/mL. Molecule `CCOC(=O)c1cnc2c(ccc3ccccc32)c1Cl` returned a solubility (kinetic) of less than 0.6 µg/mL.

As for `O=C(Cc1c(Cl)cccc1Cl)NC1CC1`, the solubility (kinetic) was greater than 36.6 µg/mL. For `Cc1cccc(NC(=S)N2CCCC2)c1` the value was greater than 33 µg/mL; for `Cc1ccc(CN2C(=O)CSC2c2cccnc2)cc1` (centres undefined), greater than 42.7 µg/mL.

`Cc1cc(C(=O)NCCN2CCOCC2)c2ccccc2n1`: the kinetic solubility was greater than 44.9 µg/mL. `CCCCS(=O)(=O)N1CCCC(C(=O)Nc2ccc(Cl)cn2)C1` (centres undefined) returned a kinetic solubility of 19.9 µg/mL (≈ 55.3 µM).

`Cc1cccc(C(=O)OCC(=O)N2CC(C)OC(C)C2)c1C` (centres undefined) showed a solubility (kinetic) greater than 45.8 µg/mL. Take `COc1ccc(C(=O)Nc2cccc3nc(C)ccc23)c(OC)c1`: the solubility (kinetic) came to 11.7 µg/mL (≈ 36.3 µM).

Turning to `COc1ccc(CN2C(=O)CCCc3ccccc32)cc1`, the kinetic solubility was greater than 42.2 µg/mL.

The molecule `COc1ccc(CNC(=O)C2CC(=O)N(C3CCCC3)C2)cc1` (centres undefined) displayed a kinetic solubility greater than 47.5 µg/mL.

`OCC[NH+](CCO)CC(O)COc1ccc(Br)cc1.[Cl-]` (centres undefined) gave a kinetic solubility greater than 55.6 µg/mL. In the case of `C[N+](C)(C)CCOC(=O)CCC(=O)OCC[N+](C)(C)C.O.[Cl-]`, the kinetic solubility was greater than 59.6 µg/mL. For `CCCn1c(=O)c(C#N)cn(C2CC2)c1=O` the value was 32.4 µg/mL (≈ 148 µM); for `CSc1ncccc1C(=O)OCc1cccc([N+](=O)[O-])c1`, less than 0.3 µg/mL; for `CCOC(=O)Cc1csc(NC(=O)Cc2ccc(C)cc2)n1`, 45.2 µg/mL (≈ 142 µM). Molecule `Cc1cc2nc(-c3ccc(=O)[nH]c3)n(Cc3ccccc3)c2cc1C` gave a solubility (kinetic) of 43.4 µg/mL (≈ 132 µM).

In the case of `COc1ccc(CC(=O)N2CCN(c3ccccc3OC)CC2)cc1OC`, the solubility (kinetic) is 51.5 µg/mL (≈ 139 µM). For the molecule `O=[N+]([O-])c1ccc(P(=O)(Cc2ccccc2)c2ccccc2O)cc1` (centres undefined), the solubility (kinetic) turned out to be 17 µg/mL (≈ 48.1 µM). `Cc1ccc2nc3c(nc2c1C)CCCC3`: the solubility (kinetic) was 7.1 µg/mL (≈ 33.4 µM). Take `O=C(Nc1ccccc1F)c1c[nH]c(=O)[nH]c1=O`: the kinetic solubility turned out to be 5.5 µg/mL (≈ 22.1 µM).

In turn, `O=[N+]([O-])c1ccc2ncnc(Nc3ccc4c(c3)OCCO4)c2c1` yielded a solubility (kinetic) of 0.2 µg/mL (≈ 0.617 µM). The same measure for `C=CCN1C(=O)C2(OCCCO2)c2cccc(C)c21`: 37.9 µg/mL (≈ 146 µM); for `COc1ccccc1OCC(=O)NC1CCCCCCC1`: 40.8 µg/mL (≈ 140 µM); for `CCCn1c(SCCC(=O)O)nc2ccccc21`: greater than 39.7 µg/mL. The same measure for `N/C(=N\O)c1ccc(Cl)cc1Cl`: 30 µg/mL (≈ 146 µM). For `CC(C)C(NC(=O)c1ccccc1F)C(=O)NCC(c1ccco1)N1CCCCC1` (centres undefined) the value was greater than 62.3 µg/mL; for `O=C(COC(=O)C1(c2ccccc2)CCCC1)N1CCNC1=O`, greater than 47.5 µg/mL; for `CCSc1nnc(NC(=O)c2nc3nc(C)cc(C)n3n2)s1`, greater than 50.3 µg/mL. As to `O=[N+]([O-])c1ccc2nonc2c1Nc1ccccc1`, the solubility (kinetic) was 0.7 µg/mL (≈ 2.73 µM). The molecule `Cc1ccc(NC(=O)CCCN2C(=O)NC(C)(C)C2=O)cc1` showed a kinetic solubility of 38.7 µg/mL (≈ 128 µM). Molecule `CCOc1ccccc1/C=C\c1nc(O)c([N+](=O)[O-])c(=O)[nH]1` gave a solubility (kinetic) greater than 45.5 µg/mL. For `Cc1ccc2c(CN3CC(C)CC(C)C3)cc(=O)oc2c1C` (centres undefined) the value was 3.3 µg/mL (≈ 11 µM); for `COC(=O)c1ccc(Nc2c([N+](=O)[O-])ccc3nonc23)cc1`, less than 0.2 µg/mL. In turn, `Cc1cc(/C(N)=N/OC(=O)Nc2ccc(Cl)cc2)no1` showed a solubility (kinetic) of 15.9 µg/mL (≈ 54 µM).

In the case of `COCCCNC(=O)/C(C#N)=C/c1cc(C)[nH]c1C`, the solubility (kinetic) is greater than 39.2 µg/mL. The same measure for `COc1ccc(NC(=O)c2ccc(NC(=O)COC(=O)c3cnc(C)cn3)cc2)cc1`: 9.1 µg/mL (≈ 21.6 µM); for `O=C(NCCC(=O)N1CCCCC1)c1ccccc1Cl`: greater than 44.2 µg/mL; for `CC(=O)Nc1cccc(CCc2nc3ccccc3[nH]2)c1`: greater than 41.9 µg/mL. `Clc1cnc(Nc2cccnc2)c(Cl)c1` yielded a kinetic solubility of 33.8 µg/mL (≈ 141 µM). The same measure for `Cc1ccc(F)cc1NC(=O)/C=C/c1ccc(S(=O)(=O)N2CCOCC2)cc1`: 1.8 µg/mL (≈ 4.45 µM). The same measure for `CCC(=O)Nc1ccc(C=C(C(C)=O)C(C)=O)cc1`: greater than 38.9 µg/mL. For `COc1ccc(C2SCC(=O)N2Cc2ccccc2)cc1` (centres undefined) the value was 44.6 µg/mL (≈ 149 µM). Molecule `Cc1cc(C)c(Nc2ncnc(N)n2)c(C)c1` registered a solubility (kinetic) greater than 34.4 µg/mL.

`CC1CCCCN1C(=O)c1cc2ccccc2cc1O` (centres undefined) came in with a kinetic solubility greater than 40.4 µg/mL. The same measure for `Cc1ccc(S(=O)(=O)c2c[nH]c3ccc(C)cc3c2=O)cc1`: less than 0.7 µg/mL.

The molecule `CCNC(=O)COC(=O)/C=C/c1cccc(F)c1` registered a solubility (kinetic) greater than 37.7 µg/mL.

In the case of `Cc1occc1C(=O)N1CCN(c2ccc([N+](=O)[O-])cc2)CC1`, the kinetic solubility was 35.4 µg/mL (≈ 112 µM). For the molecule `COc1ccc(CCNC(=O)COC(=O)c2cc(=O)[nH]c3ccccc23)cc1`, the solubility (kinetic) was 8.9 µg/mL (≈ 23.4 µM). This solubility kinetic is about 4-fold lower than that of the molecule before. The same measure for `CCOC(=O)c1sc(NC(=O)C2=COCCO2)c(C#N)c1C`: 13.5 µg/mL (≈ 41.9 µM). The same measure for `COc1cc(C(=O)NC(=S)N2CCN(C)CC2)cc(OC)c1OC`: greater than 53 µg/mL; for `O=C(NCCCc1ccccc1)c1cncc(Br)c1`: 47.9 µg/mL (≈ 150 µM). For `O=C(O)CSc1nc2c(c(C(F)(F)F)n1)CCCC2`, the solubility (kinetic) is greater than 43.8 µg/mL. For `Cc1c(C(=O)NCc2ccccn2)oc2c(Cl)cccc12` the value was greater than 45.1 µg/mL; for `O=C(O)c1ccccc1Nc1ccc2nonc2c1[N+](=O)[O-]`, greater than 45 µg/mL. For the molecule `Cc1ccc(C)c(Oc2cc(F)nc(N)n2)c1`, the solubility (kinetic) was greater than 35 µg/mL.

As to `Cc1ccc(Nc2nc(-c3ccncc3)nc3ccccc23)cc1`, the kinetic solubility was less than 0.2 µg/mL. The same measure for `CCc1ccc(C(=O)CSc2nc(N)cc(=O)[nH]2)cc1`: 14.2 µg/mL (≈ 49.1 µM); for `COc1ccc(S(=O)(=O)N2CCCC2)cc1Br`: 33.9 µg/mL (≈ 106 µM). For `CC(=O)Nc1cccc(NC(=O)Cc2ccc3ccccc3c2)c1` the value was 0.9 µg/mL (≈ 2.83 µM). With `N#C/C(=C\c1cccnc1)C(=O)Nc1ccc(S(N)(=O)=O)cc1`, the kinetic solubility was 36.6 µg/mL (≈ 111 µM). `Cc1cc(Cl)ccc1NC(=O)C1COc2ccccc2O1` (centres undefined) returned a kinetic solubility of 18.1 µg/mL (≈ 59.6 µM). Take `O=C(CN1CCN(Cc2ccccc2Cl)C1=O)NCc1ccccn1`: the kinetic solubility is greater than 53.8 µg/mL. The same measure for `COc1ccc(OCC(=O)NCc2ccc(Cl)cc2)cc1`: 3.3 µg/mL (≈ 10.8 µM); for `COc1ccccc1N1CC(C(=O)NC2CCCCCC2)CC1=O` (centres undefined): greater than 49.6 µg/mL; for `NC(=O)c1ccc(Nc2ccc3c(c2)CCC3)c([N+](=O)[O-])c1`: 2.6 µg/mL (≈ 8.74 µM). The same measure for `O=C1CCC(C(=O)N2CCCC2)CN1CCc1cccc(F)c1` (centres undefined): greater than 47.8 µg/mL; for `COc1cccc(SCC(=O)N2CCN(c3ccccc3)CC2)c1`: 34.2 µg/mL (≈ 99.9 µM). The same measure for `COc1ccc(NC(C)c2ccccc2)cc1` (centres undefined): 16.9 µg/mL (≈ 74.3 µM). The molecule `CC(=O)c1cccc(NC(=O)C2C3C=CC(C3)C2C(=O)O)c1` (centres undefined) returned a kinetic solubility greater than 44.9 µg/mL. For the molecule `O=C(COc1ccc([N+](=O)[O-])cc1)Nc1ccccc1C(=O)NC1CC1`, the kinetic solubility is 1.3 µg/mL (≈ 3.66 µM). In turn, `COc1ccc(CN(CCC(c2ccco2)C(C)C)C(C)=O)cc1OC` (centres undefined) registered a kinetic solubility of 49.2 µg/mL (≈ 137 µM).

Take `O=C(CCc1c[nH]c2ccccc12)N1CCCC1`: the solubility (kinetic) is greater than 36.3 µg/mL. For `COc1ccc(C(=O)N2CC(c3ccccc3)CC2=O)cc1` (centres undefined) the value was 3.4 µg/mL (≈ 11.5 µM). `CN1C(=O)c2cccc3c(S(=O)(=O)N(C)C)ccc1c23` had a kinetic solubility of 14 µg/mL (≈ 48.2 µM). For `COC(=O)c1cccc(NC(=O)NC(=O)c2ccccc2Cl)c1` the value was 0.6 µg/mL (≈ 1.8 µM); for `CCC1Oc2ccccc2N(CC(=O)NC2CCCCC2)C1=O` (centres undefined), 43.9 µg/mL (≈ 139 µM).

Molecule `O=C(CCN1CCN(CCO)CC1)Nc1ccc(Br)cc1` displayed a solubility (kinetic) greater than 53.4 µg/mL. `Cc1c(O)nc2sc3ccccc3n2c1=O` had a solubility (kinetic) of 31.3 µg/mL (≈ 135 µM). For `Cl.O=C(OCCN1CCCCC1)c1ccccc1F`, the solubility (kinetic) is greater than 43.2 µg/mL. As to `CCOc1ccc(C2(C)CC(=O)N(C)C2=O)cc1` (centres undefined), the kinetic solubility is 11.4 µg/mL (≈ 46.1 µM). For `COc1ccc([C@@H]2OC2(C(N)=O)C(N)=O)cc1` the value was 32.2 µg/mL (≈ 136 µM). Molecule `CCN(C(=O)Cc1c(C(=O)O)n(CC)c2ccccc12)c1ccccc1C` came in with a kinetic solubility of 42.7 µg/mL (≈ 117 µM).
